Measurements published in patent US20260116910A1, “POLYCYCLIC COMPOUNDS AND METHODS THEREOF” (HEPAITECH (BEIJING) BIOPHARMA TECHNOLOGY CO., LTD., priority 2021, published 2026).
Like-named read-outs stand apart in the source and are kept apart here.

What was measured:
human FXR (NR1H4) = target: T1, human FXR (NR1H4) (Homo sapiens, UniProt Q96RI1); test: Human FXR (NR1H4) agonist assessment, FXRE-NanoLuc reporter in HEK293T cells; type: cell-based
T1 sequence (Q96RI1 1-476 isoform Q96RI1-1): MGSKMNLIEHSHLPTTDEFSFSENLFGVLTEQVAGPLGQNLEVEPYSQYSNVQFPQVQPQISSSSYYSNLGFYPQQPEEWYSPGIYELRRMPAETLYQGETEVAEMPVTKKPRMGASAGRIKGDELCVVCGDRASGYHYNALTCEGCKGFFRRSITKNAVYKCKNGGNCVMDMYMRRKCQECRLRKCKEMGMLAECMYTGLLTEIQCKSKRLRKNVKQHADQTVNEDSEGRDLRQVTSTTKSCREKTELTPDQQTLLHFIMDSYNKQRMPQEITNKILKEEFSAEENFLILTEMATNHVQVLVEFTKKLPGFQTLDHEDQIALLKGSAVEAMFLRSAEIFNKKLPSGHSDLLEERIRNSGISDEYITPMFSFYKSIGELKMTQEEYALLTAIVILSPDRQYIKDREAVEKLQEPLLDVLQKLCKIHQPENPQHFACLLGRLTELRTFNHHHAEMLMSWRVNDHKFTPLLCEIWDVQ
Procedure, shortened: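 Read-out was NanoLuc luminescence in culture medium, measured 5 min after adding coelenterazine. Cells were HEK293T stably carrying human FXR and an FXRE reporter, exposed to compound for 24 hr at 37 °C. Vehicle was 0.01% DMSO. EC50 was obtained from sigmoid fits of gradient dilutions.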

MRGPRX4 = MRGPRX4 (Homo sapiens, UniProt Q96LA9); test: MRGPRX4 activation, Fluo-8 Ca2+ FLIPR assay in HEK293T cells stably expressing MRGPRX4; type: cell-based; design: key to MRGPRX4 activation, Average / MRGPRX4 activation, Ave.: fluorescence change dF/F0
Sequence of MRGPRX4 (Q96LA9 whole entry): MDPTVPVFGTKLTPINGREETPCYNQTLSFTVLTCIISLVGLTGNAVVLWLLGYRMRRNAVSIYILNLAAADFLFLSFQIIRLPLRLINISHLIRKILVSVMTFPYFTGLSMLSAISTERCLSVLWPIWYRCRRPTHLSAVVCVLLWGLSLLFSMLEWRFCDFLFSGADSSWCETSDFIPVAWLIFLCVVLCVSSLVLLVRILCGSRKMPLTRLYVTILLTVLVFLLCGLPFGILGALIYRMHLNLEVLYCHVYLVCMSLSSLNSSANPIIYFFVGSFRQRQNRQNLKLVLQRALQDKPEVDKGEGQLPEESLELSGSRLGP
Procedure, shortened: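 Response measured as dF/F0: 30 s baseline, then 150 s after compound addition on FLIPR Tetra, in HHBS after 40-60 min room-temperature loading with 2 μM Fluo-8 AM.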

[1] = FXR activation, HEK293T FXRE-NanoLuc reporter, 24 hr
[2] = FXR activation, HEK293T FXRE-NanoLuc reporter, 24 hr, read-out: EC50
[3] = MRGPRX4 activation, Ca2+ fluorescence, no activation in tested range reported as III, read-out: Activity (EC50 μM)

| Compound | Efficacy (maximum measured induction of NanoLuc, normalized to CDCA set as 100%) (human FXR (NR1H4); [1]) | EC50 (human FXR (NR1H4); [2]) | MRGPRX4 activation, Average (MRGPRX4; E3-9, Conc. (Log[M]) −4.0) | MRGPRX4 activation, Average (MRGPRX4; E3-9, Conc. (Log[M]) −4.5) | MRGPRX4 activation, Average (MRGPRX4; E3-9, Conc. (Log[M]) −5.0) | MRGPRX4 activation, Average (MRGPRX4; E3-9, Conc. (Log[M]) −5.4) | MRGPRX4 activation, Average (MRGPRX4; E3-9, Conc. (Log[M]) −5.9) | MRGPRX4 activation, Average (MRGPRX4; E3-9, Conc. (Log[M]) −6.4) | MRGPRX4 activation, Average (MRGPRX4; E3-9, Conc. (Log[M]) −6.9) | MRGPRX4 activation, Average (MRGPRX4; E3-9, Conc. (Log[M]) −7.3) | MRGPRX4 activation, Average (MRGPRX4; E3-9, Conc. (Log[M]) −7.8) | MRGPRX4 activation, Average (MRGPRX4; E3-9, Conc. (Log[M]) −8.3) | EC50 (MRGPRX4; [3]) | MRGPRX4 activation, fluorescence change (dF/F0), Average (MRGPRX4; Conc. (Log[M]) −4.5) | further results |
| --- | --- | --- | --- | --- | --- | --- | --- | --- | --- | --- | --- | --- | --- | --- | --- |
| [2H]C1CC[C@@]2(C)[C@@H](C1)[C@@H](CC)[C@@H](O)[C@@H]1[C@@H]2CC[C@]2(C)[C@@H]([C@H](C)CCC(=O)O)CC[C@@H]12 (stereo partly shown) [13-1] | C (100%<efficacy <=300%) | < 1 µM | 0.104 | −0.009 | 0.013 | 0.013 | 0.018 | 0.015 | 0.018 | 0.013 | 0.010 | 0.013 | > 100 µM | – | – |
| CC[C@H]1[C@@H](O)[C@@H]2[C@H](CC[C@]3(C)[C@@H]([C@H](C)CCNC(=O)NS(=O)(=O)c4ccc(C(C)(C)C#N)cc4)CC[C@@H]23)[C@@]2(C)CCCC[C@@H]12 [5-17] | C (100%<efficacy <=300%) | < 1 µM | – | – | – | – | – | – | – | – | – | – | > 100 µM | 0.018 | MRGPRX4 activation, fluorescence change (dF/F0), Average (MRGPRX4; Conc. (Log[M]) −4.0): 0.016; MRGPRX4 activation, fluorescence change (dF/F0), Average (MRGPRX4; Conc. (Log[M]) −5.0): 0.019; MRGPRX4 activation, fluorescence change (dF/F0), Average (MRGPRX4; Conc. (Log[M]) −5.4): 0.016; MRGPRX4 activation, fluorescence change (dF/F0), Average (MRGPRX4; Conc. (Log[M]) −5.9): 0.018; MRGPRX4 activation, fluorescence change (dF/F0), Average (MRGPRX4; Conc. (Log[M]) −6.4): 0.018; MRGPRX4 activation, fluorescence change (dF/F0), Average (MRGPRX4; Conc. (Log[M]) −6.9): 0.011; MRGPRX4 activation, fluorescence change (dF/F0), Average (MRGPRX4; Conc. (Log[M]) −7.3): 0.018; MRGPRX4 activation, fluorescence change (dF/F0), Average (MRGPRX4; Conc. (Log[M]) −7.8): 0.020; MRGPRX4 activation, fluorescence change (dF/F0), Average (MRGPRX4; Conc. (Log[M]) −8.3): 0.013 |
| CC[C@H]1[C@@H](O)[C@@H]2[C@H](CC[C@]3(C)[C@@H]([C@H](C)CCNC(=O)NS(=O)(=O)c4ccc5c(c4)OCO5)CC[C@@H]23)[C@@]2(C)CCCC[C@@H]12 [5-6] | C (100%<efficacy <=300%) | < 1 µM | – | – | – | – | – | – | – | – | – | – | > 100 µM | 0.033 | MRGPRX4 activation, fluorescence change (dF/F0), Average (MRGPRX4; Conc. (Log[M]) −4): 0.077; MRGPRX4 activation, fluorescence change (dF/F0), Average (MRGPRX4; Conc. (Log[M]) −5): 0.010; MRGPRX4 activation, fluorescence change (dF/F0), Average (MRGPRX4; Conc. (Log[M]) −5.5): 0.017; MRGPRX4 activation, fluorescence change (dF/F0), Average (MRGPRX4; Conc. (Log[M]) −6): 0.013; MRGPRX4 activation, fluorescence change (dF/F0), Average (MRGPRX4; Conc. (Log[M]) −7): 0.010 |
| C[C@H](CCC(C)(C)O)[C@H]1CC[C@H]2[C@@H]3CC[C@@H]4CCCC[C@]4(C)[C@H]3CC[C@]12C [2-3] | C (100%<efficacy <=300%) | 1 to 10 µM | – | – | – | – | – | – | – | – | – | – | > 100 µM | 0.027 | MRGPRX4 activation, fluorescence change (dF/F0), Average (MRGPRX4; Conc. (Log[M]) −4): 0.074; MRGPRX4 activation, fluorescence change (dF/F0), Average (MRGPRX4; Conc. (Log[M]) −5): −0.036; MRGPRX4 activation, fluorescence change (dF/F0), Average (MRGPRX4; Conc. (Log[M]) −5.5): −0.031; MRGPRX4 activation, fluorescence change (dF/F0), Average (MRGPRX4; Conc. (Log[M]) −6): −0.031; MRGPRX4 activation, fluorescence change (dF/F0), Average (MRGPRX4; Conc. (Log[M]) −7): −0.008; MRGPRX4 activation, fluorescence change (dF/F0), Average (MRGPRX4; Conc. (Log[M]) −8): −0.023; MRGPRX4 activation, fluorescence change (dF/F0), Average (MRGPRX4; Conc. (Log[M]) −9): −0.017 |
| CC[C@H]1[C@@H](O)[C@@H]2[C@H](CC[C@]3(C)[C@@H]([C@H](C)CCNC(=O)NS(=O)(=O)c4cccs4)CC[C@@H]23)[C@@]2(C)CC[C@H](F)C[C@@H]12 [9-4] | C (100%<efficacy <=300%) | < 1 µM | −0.003 | 0.004 | 0.014 | 0.019 | 0.019 | 0.018 | 0.019 | 0.021 | 0.018 | 0.019 | > 100 µM | – | – |
| CC[C@H]1[C@@H](O)[C@@H]2[C@H](CC[C@]3(C)[C@@H]([C@H](C)CCNC(=O)NS(=O)(=O)C4CCCCC4)CC[C@@H]23)[C@@]2(C)CCCC[C@@H]12 [5-3] | C (100%<efficacy <=300%) | 1 to 10 µM | – | – | – | – | – | – | – | – | – | – | > 100 µM | 0.031 | MRGPRX4 activation, fluorescence change (dF/F0), Average (MRGPRX4; Conc. (Log[M]) −4): 0.297; MRGPRX4 activation, fluorescence change (dF/F0), Average (MRGPRX4; Conc. (Log[M]) −5): 0.001; MRGPRX4 activation, fluorescence change (dF/F0), Average (MRGPRX4; Conc. (Log[M]) −5.5): −0.012; MRGPRX4 activation, fluorescence change (dF/F0), Average (MRGPRX4; Conc. (Log[M]) −6): −0.033; MRGPRX4 activation, fluorescence change (dF/F0), Average (MRGPRX4; Conc. (Log[M]) −7): −0.011; MRGPRX4 activation, fluorescence change (dF/F0), Average (MRGPRX4; Conc. (Log[M]) −8): −0.012; MRGPRX4 activation, fluorescence change (dF/F0), Average (MRGPRX4; Conc. (Log[M]) −9): 0.002 |
| CC[C@H]1[C@@H](O)[C@@H]2[C@H](CC[C@]3(C)[C@@H]([C@H](C)CCNC(=O)NS(=O)(=O)Cc4ccccc4)CC[C@@H]23)[C@@]2(C)CCCC[C@@H]12 [5-13] | C (100%<efficacy <=300%) | < 1 µM | – | – | – | – | – | – | – | – | – | – | > 100 µM | – | MRGPRX4 activation, Average (MRGPRX4; E3-6-2, 1st of 6 concentration columns (head not in rows shown)): 0.060; MRGPRX4 activation, Average (MRGPRX4; E3-6-2, 3rd of 6 concentration columns (head not in rows shown)): 0.030; MRGPRX4 activation, Average (MRGPRX4; E3-6-2, 6th of 6 concentration columns (head not in rows shown)): 0.027; MRGPRX4 activation, Average (MRGPRX4; E3-6-2, concentration not given): 0.017 |
| CC[C@H]1[C@@H](O)[C@@H]2[C@H](CC[C@]3(C)[C@@H]([C@H](C)CCN=C=S)CC[C@@H]23)[C@@]2(C)CCC(F)(F)C[C@@H]12 [11-2] | D (efficacy <=100%) | – | 0.030 | 0.020 | 0.010 | 0.020 | 0.020 | 0.013 | 0.013 | 0.013 | 0.013 | 0.025 | – | – | EC50 (human FXR (NR1H4)): > 10 µM; EC50 (MRGPRX4): > 100 µM |
| CCOC(=O)C(=O)NCC[C@@H](C)[C@H]1CC[C@H]2[C@@H]3[C@H](O)[C@H](CC)[C@@H]4CCCC[C@]4(C)[C@H]3CC[C@]12C [compound 53] | C (100%<efficacy <=300%) | < 1 µM | 0.030 | 0.016 | 0.013 | 0.020 | 0.011 | 0.013 | 0.013 | 0.013 | 0.008 | 0.011 | > 100 µM | – | – |
| CC[C@H]1[C@@H](O)[C@@H]2[C@H](CC[C@]3(C)[C@@H]([C@H](C)CCNC(=O)NS(=O)(=O)c4cccs4)CC[C@@H]23)[C@@]2(C)CCC(F)(F)C[C@@H]12 [10-4] | C (100%<efficacy <=300%) | < 1 µM | −0.004 | 0.001 | 0.008 | 0.022 | 0.013 | 0.015 | 0.013 | 0.010 | 0.010 | 0.020 | > 100 µM | – | – |
| CC[C@H]1[C@@H](O)[C@@H]2[C@H](CC[C@]3(C)[C@@H]([C@H](C)CNC(=O)NS(=O)(=O)c4ccc5c(c4)CCC(C)(C)O5)CC[C@@H]23)[C@@]2(C)CCCC[C@@H]12 [20-2] | B (300%<efficacy <=400%) | 1 to 10 µM | 0.025 | 0.012 | 0.021 | 0.019 | 0.025 | – | – | – | – | – | > 100 µM | – | – |
